Source: patent US20230060425A1, “FUSED BICYCLIC HETEROCYCLE DERIVATIVES AS PESTICIDES” (Bayer Aktiengesellschaft, priority 2019, published 2023)
Where two headings read alike, the source gives them in different places.

How the values were obtained:
Format in all cases: in vivo
[1] = test system: Myzus persicae; assay: Myzus persicae oral test; settings: 120 h, application rate 4 ppm, after 5 days, read-out: efficacy
Method: Solvent: 100 parts by weight of acetone
To produce a suitable preparation of active compound, 1 part by weight of active compound is dissolved using the specified parts by weight of solvent and made up with water until the desired concentration is attained.
50 μl of the active compound preparation are transferred into microtitre plates and made up to a final volume of 200 μl with 150 μl of IPL41 insect medium (33%+15% sugar). Subsequently, the plates are sealed with parafilm, which a mixed population of green peach aphids (Myzus persicae) within a second microtitre plate is able to puncture and imbibe the solution through it.
(§1) After 5 days, the efficacy in % is determined. 100% means that all the aphids have been killed; 0% means that no aphids have been killed.

[2] = test system: Ctenocephalides felis; assay: Ctenocephalides felis oral test; settings: 48 h, application rate 100 ppm, in citrated cattle blood, after 2 days, read-out: efficacy (kill in %)
Method: Ctenocephalides felis—Oral Test
(§2) Solvent: Dimethyl sulfoxide
To produce a suitable active compound formulation, 10 mg of active compound are mixed with 0.5 ml of dimethyl sulfoxide. Dilution with citrated cattle blood gives the desired concentration.
About 20 unfed adult cat fleas (Ctenocephalides felis) are placed into a chamber which is closed at the top and bottom with gauze. A metal cylinder whose bottom end is closed with parafilm is placed onto the chamber. The cylinder contains the blood/active compound formulation, which can be imbibed by the fleas through the parafilm membrane.
After 2 days, the kill in % is determined. 100% means that all of the fleas have been killed; 0% means that none of the fleas have been killed.

[3] = test system: Ctenocephalides felis; assay: Ctenocephalides felis in vitro contact test with adult cat fleas; settings: application rate 5 μg/cm^2 (=500 g/ha); after 48 h; fleas dead or moribund
Method: Ctenocephalides felis—In Vitro Contact Tests with Adult Cat Fleas
(§3) For the coating of the test tubes, 9 mg of active compound are first dissolved in 1 ml of acetone p.a. and then diluted to the desired concentration with acetone p.a. 250 μl of the solution are distributed homogeneously on the inner walls and the base of a 25 ml glass tube by turning and rocking on an orbital shaker (rocking rotation at 30 rpm for 2 h). With 900 ppm of active compound solution and internal surface area 44.7 cm^2, given homogeneous distribution, an area-based dose of 5 μg/cm^2 is achieved.
After the solvent has evaporated off, the tubes are populated with 5-10 adult cat fleas (Ctenocephalides felis), sealed with a perforated plastic lid and incubated in a horizontal position at room temperature and ambient humidity. After 48 h, efficacy is determined. To this end, the tubes are stood upright and the fleas are knocked to the base of the tube. Fleas which remain motionless at the base or move in an uncoordinated manner are considered to be dead or moribund.
100% efficacy means that all the fleas were dead or moribund. 0% efficacy means that no fleas were harmed.

[4] = test system: Spodoptera frugiperda; assay: Spodoptera frugiperda spray test; settings: foliar, 168 h, application rate 100 g/ha, maize leaf discs, after 7 days, read-out: efficacy
Method: Spodoptera frugiperda—Spray Test
(§4) Solvent: • 78.0 parts by weight of acetone • 1.5 parts by weight of dimethylformamide
(§5) Emulsifier: alkylaryl polyglycol ether
To produce further test concentrations, the formulation is diluted with emulsifier-containing water.
After 7 days, the efficacy in % is determined. 100% means that all the caterpillars have been killed; 0% means that no caterpillar has been killed.

[5] = test system: Meloidogyne incognita; assay: Meloidogyne incognita test; settings: 336 h, application rate 20 ppm, lettuce, after 14 days, formation of galls, read-out: nematicidal efficacy
Method: Meloidouyne incognita Test
Solvent: 125.0 parts by weight of acetone
To produce a suitable active compound formulation, 1 part by weight of active compound is mixed with the stated amount of solvent and the concentrate is diluted to the desired concentration with water.
Vessels are filled with sand, active compound solution, an egg/larvae suspension of the southern root-knot nematode (Meloidogyne incognita) and lettuce seeds. The lettuce seeds germinate and the plants develop. The galls develop on the roots.
After 14 days, the nematicidal efficacy in % is determined by the formation of galls. 100% means that no galls were found; 0% means that the number of galls on the treated plants corresponds to the untreated control.

[6] = test system: Diabrotica balteata; assay: Diabrotica balteata spray test; settings: 168 h, application rate 160 μg/cavity (μg/well), wheat grains, after 7 days, read-out: efficacy
Method: Diabrotica balteata—Spray Test
(§6) Solvent: • 78 parts by weight of acetone • 1.5 parts by weight of dimethylformamide
as §5
(§7) To produce a suitable active compound preparation, 1 part by weight of active compound is dissolved using the stated parts by weight of solvent and made up with water containing an emulsifier concentration of 1000 ppm until the desired concentration is attained. To produce further test concentrations, the formulation is diluted with emulsifier-containing water.
Pre-swollen wheat grains (Triticum aestivum) are incubated in a multiwell plate filled with agar and a little water for one day (5 seed grains per well). The germinated wheat grains are sprayed with an active compound preparation of the desired concentration. Subsequently, each cavity is infected with 10-20 beetle larvae of Diabrotica balteata.
After 7 days, the efficacy in % is determined. 100% means that all wheat plants have grown as in the untreated, uninfected control; 0% means that no wheat plant has grown.

[7] = test system: Myzus persicae; assay: Myzus persicae spray test on bell pepper plants (MYZUPE S); settings: 144 h, 6 dat, read-out: % Efficacy
Method: Myzus persicae—Spray Test (MYZUPE S)
(§8) Solvent: 14 parts by weight of dimethylformamide
as §5
as §7, with “water. If the addition of ammonium salts or/and penetrants is required, these are each added in a concentration of 1000 ppm to the formulation solution.” for “water.”
Bell pepper plants (Capsicum annuum) severely infested with the green peach aphid (Myzus persicae) are treated by spraying with the active compound formulation in the desired concentration.
After the desired time, the kill in % is determined. 100% means that all the animals have been killed; 0% means that no animals have been killed.

[8] = test system: Aphis gossypii; assay: Aphis gossypii spray test (APHIGO S); settings: 144 h, 6 dat, read-out: % Efficacy
Method: Aphis gossypii—Spray Test (APHIGO S)
as §8, §5
as §7, with “water. If the addition of ammonium salts or/and penetrants is required, these are each added in a concentration of 1000 ppm to the formulation solution.” for “water.”
Cotton plants (Gossypium hirsutum) heavily infested by the cotton aphid (Aphis gossypii) are sprayed with an active compound formulation of the desired concentration.
After the desired time, the kill in % is determined. 100% means that all the aphids have been killed; 0% means that no aphids have been killed.

[9] = test system: Myzus persicae; assay: Myzus persicae spray test (MYZUPE), comparative; settings: 120 h, 5 dat, read-out: % Efficacy
Method: Myzus persicae—Spray Test (MYZUPE)
as §4, §5, §7
Discs of Chinese cabbage leaves (Brassica pekinensis) infested by all stages of the green peach aphid (Myzus persicae) are sprayed with an active compound preparation of the desired concentration.
After the desired period of time, the efficacy in % is determined. 100% means that all the aphids have been killed; 0% means that no aphids have been killed.

[10] = test system: Rhipicephalus sanguineus; assay: Rhipicephalus sanguineus in vitro contact test with adult brown dog ticks; settings: application rate 5 μg/cm^2; after 48 h; ticks dead or moribund
Method: Rhipicephalus sanguineus—In Vitro Contact Tests with Adult Brown Dog Ticks
as §3
After the solvent has evaporated off, the tubes are populated with 5-10 adult dog ticks (Rhipicephalus sanguineus), sealed with a perforated plastic lid and incubated in a horizontal position in the dark at room temperature and ambient humidity. After 48 h, efficacy is determined. To this end, the ticks are knocked to the base of the tube and incubated on a hotplate at 45-50° C. for not more than 5 min. Ticks which remain motionless on the base or move in such an uncoordinated manner that they are unable to deliberately avoid the heat by climbing upwards are considered to be dead or moribund.
An efficacy of 100% means that all the ticks were dead or moribund. 0% efficacy means that none of the ticks were harmed.

[11] = test system: Spodoptera frugiperda; assay: Spodoptera frugiperda spray test (SPODFR), comparative; settings: 168 h, 0.8 g of ai/ha, 7 dat, read-out: % Efficacy
Method: Spodoptera frugiperda—Spray Test (SPODFR)
as §4, §5, §7
Leaf discs of maize (Zea mays) are sprayed with an active compound formulation of the desired concentration and, after drying, populated with caterpillars of the armyworm (Spodoptera frugiperda).
After the desired period of time, the efficacy in % is determined. 100% means that all the caterpillars have been killed; 0% means that no caterpillar has been killed.

[12] = test system: Myzus persicae; assay: Myzus persicae spray test; settings: foliar, 120 h, application rate 100 g/ha, Chinese cabbage leaf discs, after 5 days, read-out: efficacy
Method: Myzus persicae—Spray Test
as §6, §5, §7
Discs of Chinese cabbage leaves (Brassica pekinensis) infested by all stages of the green peach aphid (Myzus persicae) are sprayed with an active compound formulation of the desired concentration.
as §1

[13] = test system: Phaedon cochleariae; assay: Phaedon cochleariae spray test; settings: foliar, 168 h, application rate 100 g/ha, Chinese cabbage leaf discs, after 7 days, read-out: efficacy
Method: Phaedon cochleariae—Spray Test
as §4, §5, §7
Discs of Chinese cabbage leaves (Brassica pekinensis) are sprayed with an active compound formulation of the desired concentration and, after drying, populated with larvae of the mustard beetle (Phaedon cochleariae).
After 7 days, the efficacy in % is determined. 100% means that all the beetle larvae have been killed; 0% means that no beetle larvae have been killed.

[14] = test system: Spodoptera frugiperda; assay: Spodoptera frugiperda test on maize plants (SPODFR S); settings: 6 dai, read-out: % Efficacy
Method: Spodoptera frugiperda Test (SPODFR S)
as §8
(§9) Emulsifier: 2 parts by weight of alkylaryl polyglycol ether
(§10) To produce a suitable active compound formulation, 1 part by weight of active compound is dissolved with the stated parts by weight of solvent and emulsifier and made up to the desired concentration with water. To produce further test concentrations, water is used for dilution. In the event that addition of ammonium salts or/and penetrants (rapeseed oil methyl ester) is required, these are each pipetted in at a concentration of 1000 ppm after the finished formulation solution has been diluted.
Maize plants (Zea mays) are sprayed with an active compound formulation of the desired concentration and, in each case after 5, 12 and 19 days, populated with 5 caterpillars (L2) of the fall armyworm (Spodoptera frugiperda).
(§11) The kill is determined 6 days after the infection. 100% means that all the caterpillars have been killed and 0% means that none of the caterpillars have been killed.

[15] = test system: Lucilia cuprina; assay: Lucilia cuprina test; settings: application rate 100 ppm; L1 larvae; after 2 days
Method: as §2
To produce a suitable active compound formulation, 10 mg of active compound are mixed with 0.5 ml of dimethyl sulfoxide, and the concentrate is diluted with water to the desired concentration.
About 20 L1 larvae of the Australian sheep blowfly (Lucilia cuprina) are transferred into a test vessel containing minced horsemeat and the active compound formulation of the desired concentration.
After 2 days, the kill in % is determined. 100% means that all the larvae have been killed; 0% means that no larvae have been killed.

[16] = test system: Plutella xylostella; assay: Plutella xylostella test (PLUTMA S); settings: 456 h, infection 19 dat, 6 dai, read-out: % Efficacy
Method: Plutella xylostella Test (PLUTMA S)
as §8, §9, §10
Cabbage plants (Brassica oleracea var. sabauda) are sprayed with an active compound formulation of the desired concentration and, after 19 days, populated with 10 caterpillars (L2 larvae) of the diamond back moth (Plutella xylostella).
as §11

SMILES	pest or weed control at 4 ppm [1] [%]	pest or weed control at 100 ppm [2] [%]	efficacy [3] [%]	pest or weed control at 100 g/ha [4] [%]	Emax at 4 ppm [8] [%]	pest or weed control at 100 g/ha [12] [%]	Emax at 0.16 ppm ([14]; 120 h, infection 5 dat) [%]	further results
CCS(=O)(=O)c1c(-c2nc3cc(C(F)(F)C(F)(F)F)cnc3n2C)ncc2cc(Br)ccc12 [Example I-005]	100	100	100	100				pest or weed control at 20 ppm [5]: 90%; pest or weed control at 160 µg/well [6]: 80%
CCS(=O)(=O)c1c(-c2nc3cc(C(F)(F)F)cnc3n2C)ncc2cc(C)ccc12 [Example I-015]	100			83	100			Emax at 0.8 ppm ([7]; 0.8 ppm): 25%; Emax at 4 ppm ([7]; 4 ppm): 100%
CCS(=O)(=O)c1c(-c2nc3cc(C(F)(F)F)cnc3n2C)ncc2c(C(F)(F)F)cccc12 [Example I-032]	100		100	100	90	100	100	Emax at 4 g/ha ([9]; 4 g of ai/ha): 90%; Emax at 20 g/ha ([9]; 20 g of ai/ha): 100%; efficacy [10]: 100%; Emax at 0.8 g/ha [11]: 100%; pest or weed control at 100 g/ha [13]: 100%; Emax at 0.16 ppm ([14]; 288 h, infection 12 dat): 70%; Emax at 0.8 ppm ([14]; 288 h, infection 12 dat): 100%
CCS(=O)(=O)c1ccc2c(S(=O)(=O)CC)c(-c3nc4cc(C(F)(F)F)cnc4n3C)ncc2c1 [Example I-034, 4,7-Bis(ethylsulfonyl)-3-[3-methyl-6-(trifluoromethyl)imidazo[4,5-b]pyridin-2-yl]isoquinoline]	100	100	100	83		90		efficacy (kill in %) [15]: 100%
CCS(=O)(=O)c1c(-c2nc3cc(C(F)(F)F)cnc3n2C)ncc2cc(OCC(F)(F)F)ccc12 [Example I-036]	100			100			90	Emax at 0.16 ppm [16]: 80%; Emax at 0.16 ppm ([14]; 456 h, infection 19 dat): 70%; Emax at 0.8 ppm ([14]; 456 h, infection 19 dat): 100%
